Source: the supplement of paper PMC12613149

Experiments:
[1] = collision cross section (TIMS, N2 drift gas) of the primary ion; higher = larger gas-phase ion size
Experimental: (§1)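 Reference mixture of environmental contaminants analysed by RP-LC (BEH C18, 50 °C; ESI+ with water/MeOH plus formic acid and ammonium formate, ESI- with ammonium bicarbonate) coupled to a timsTOF Pro 2 with trapped ion mobility in nitrogen (ramp/accumulation 100 ms). CCS was calibrated with Agilent tune mix (CCS compendium) and averaged over five injections at 0.5-500 ng/mL. The table reports the lowest-CCS (putative monomer) peak; retention times are on the same gradient.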

[2] = reversed-phase LC retention time (C18, 15 min MeOH gradient); higher = more hydrophobic / later elution
Experimental: as §1

[3] = ionization mode: ESI+, ion species: [M+H]+
[4] = ionization mode: ESI-, ion species: [M-H]-

| Structure (SMILES) | collision cross section [1, 3] [Å²] | collision cross section [1, 4] [Å²] | reversed-phase LC retention time [2, 3] [min] | reversed-phase LC retention time [2, 4] [min] |
| --- | --- | --- | --- | --- |
| Cn1c(N)nc2ncc(-c3ccccc3)cc21 [2-Amino-1-methyl-6-phenylimidazo[4,5-b]pyridine (PhIP)] | 152.56 | 152.05 | 9.5 | 12.1 |
| Cc1cnc2ccc3c(nc(N)n3C)c2n1 [2-Amino-3,8-dimethylimidazo-[4,5-f]quinoxaline (MeIQx)] | 147.79 | 147.68 | 7.67 | 9.09 |
| Cn1c(N)nc2c3cccnc3ccc21 [2-Amino-3-methyl-imidazo[4,5-f]quinoline (IQ)] | 138.89 | 139.48 | 6.04 | 8.79 |
| Nc1ccc2c(n1)[nH]c1ccccc12 [2-Amino-9H-pyrido[2,3-b]indole (AalphaC)] | – | 135.27 | – | 12 |
| Nc1nc2ccccc2[nH]1 [2-Aminobenzimidazole] | 124.95 | – | 5.92 | – |
| Nc1ccccc1-c1ccccc1 [2-Aminobiphenyl] | 141.24 | – | 12.8 | – |
| O=S(=O)(O)c1nc2ccccc2s1 [2-Benzothiazolesulfonic acid] | 141.34 | 139.34 | 7.62 | 7.26 |
| CCCCCCCCOc1ccc(C(=O)c2ccccc2)c(O)c1 [2-Hydroxy-4-(octyloxyl)benzophenone] | 193.92 | 193.31 | 18.9 | 19.6 |
| CCNc1nc(O)nc(NC(C)C)n1 [2-Hydroxyatrazine] | 147.52 | 146.65 | 8.5 | 10.7 |
| CCNS(=O)(=O)C(F)(F)C(F)(F)C(F)(F)C(F)(F)C(F)(F)C(F)(F)C(F)(F)C(F)(F)F [2-N-Ethylperfluorooctanesulfonamide] | – | 178.3 | – | 17.6 |
| CCCCCCCCn1sccc1=O [2-Octyl-4-isothiazolin-3-one] | 157.49 | – | 14.9 | – |
| Oc1ccccc1-c1ccccc1 [2-Phenylphenol] | – | 134.42 | – | 13.9 |
| O=[PH]1Oc2ccccc2-c2ccccc21 (stereo not drawn) [3,4,5,6-Dibenzo-1,2-oxaphosphane-2-oxide] | – | 144.27 | – | 8.76 |
| Oc1cc(Cl)c(Cl)c(Cl)c1 [3,4,5-Trichlorophenol] | – | 126.86 | – | 14.7 |
| Oc1nc(Cl)c(Cl)cc1Cl [3,5,6-Trichloro-2-pyridinol] | – | 125.88 | – | 11.2 |
| N#Cc1cc(Br)c(O)c(Br)c1 [3,5-Dibromo-4-hydroxybenzonitrile] | – | 129.33 | – | 8.01 |
| Cc1ccc(N)cc1Cl [3-Chloro-4-methylaniline] | 148.73 | – | 12.2 | – |
| CCCCNC(=O)OCC#CI [3-Iodopropynyl butylcarbamate] | 147.73 | – | 12.8 | – |
| Cc1cc(Cc2ccc(N)c(C)c2)ccc1N [4,4'-Methylene-bis(2-methyl aniline)] | 171.67 | – | 8.47 | – |
| Nc1ccc(Cc2ccc(N)cc2)cc1 [4,4'-Methylenedianiline] | 162.72 | – | 5.68 | – |
| Nc1ccc(Oc2ccc(N)cc2)cc1 [4,4'-Oxydianiline] | 159.82 | – | 4.06 | – |
| Nc1ccc(Sc2ccc(N)cc2)cc1 [4,4'-Thiodianiline] | 164.43 | – | 9.19 | – |
| Nc1cnn(-c2ccccc2)c(=O)c1Cl [4-Amino-5-chloro-1-phenyl-6-pyridazone] | 143.41 | 141.68 | 9.16 | 9.26 |
| C[C@]12CCC(=O)C=C1CC[C@@H]1[C@@H]2[C@@H](O)C[C@]2(C)C(=O)CC[C@@H]12 [4-Androsten-11beta-ol-3,17-dione] | 174.44 | – | 12.8 | – |
| C[C@]12CCC(=O)C=C1CC[C@@H]1[C@@H]2CC[C@]2(C)C(=O)CC[C@@H]12 [4-Androstene-3,17-dione] | 172.73 | – | 13.9 | – |
| Nc1ccc(Cl)cc1 [4-Chloroaniline] | 114.68 | – | 8.59 | – |
| CC(C)(c1ccccc1)c1ccc(O)cc1 [4-Cumylphenol] | – | 156.38 | – | 15.7 |
| Oc1c(Cl)cc(-c2ccc(Cl)cc2)cc1Cl [4-Hydroxy-3,4',5-trichlorobiphenyl] | – | 154.17 | – | 15.5 |
| CC(C)(C)CC(C)(C)c1ccc(O)cc1 [4-tert-Octylphenol] | – | 156.39 | – | 17.3 |

The remaining lines, values ahead:

| collision cross section [1, 3] [Å²] | collision cross section [1, 4] [Å²] | reversed-phase LC retention time [2, 3] [min] | reversed-phase LC retention time [2, 4] [min] | Structure (SMILES) |
| --- | --- | --- | --- | --- |
| 126.56 | 122.14 | 10.5 | 10.6 | O=c1[nH]c2ccccc2s1 [2-Hydroxybenzothiazole] |
| 155.33 | – | 10.3 | – | NC(=O)N1c2ccccc2C=Cc2cc(O)ccc21 [2-Hydroxycarbamazepine] |
| – | 138.96 | – | 12.4 | Oc1ccc2c(c1)[nH]c1ccccc12 [2-Hydroxycarbazole] |
| 142.3 | 140.22 | 6.43 | 8.55 | CC(C)(C)Nc1nc(N)nc(O)n1 [2-Hydroxydesethylterbuthylazine] |
| 131.58 | – | 7.51 | – | Cc1cc(=O)[nH]c(C(C)C)n1 [2-Isopropyl-6-methyl-pyrimidin-4-ol] |
| 155.68 | – | 17.1 | – | CC(C)c1ccc2sc3ccccc3c(=O)c2c1 [2-Isopropylthioxanthone] |
| – | 142.13 | – | 8.49 | O=S(=O)(O)c1ccc2ccccc2c1 [2-Naphthalenesulfonic acid] |
| – | 144.25 | – | 7.16 | O=S(=O)(O)c1cccc2ccc(O)cc12 [2-Naphthol-8-sulfonic acid] |
| 146.21 | 134.15 | 12.2 | 12.4 | NC(=O)Nc1ccc(Cl)c(Cl)c1 [3,4-Dichlorophenylurea] |
| – | 165.11 | – | 16.3 | CC(=O)c1cc(C(C)(C)C)c(O)c(C(C)(C)C)c1 [3,5-Di-tert-butyl-4'-hydroxyacetophenone] |
| 139.49 | – | 10.8 | – | CN(C)C(=O)NC1CCCCC1 [3-Cyclohexyl-1,1-dimethylurea] |
| – | 149.63 | – | 16.1 | Oc1cc(-c2ccc(Cl)cc2)ccc1Cl [3-Hydroxy-4,4'-dichlorobiphenyl] |
| – | 178.47 | – | 0.97 | Nc1ccc(/C=C/c2ccc(N)cc2S(=O)(=O)O)c(S(=O)(=O)O)c1 [4,4'-Diaminostilbene-2,2'-disulfonic acid] |
| 132.84 | 135.07 | 11.7 | 11.9 | CC(=O)CCc1ccc(O)cc1 [4-(4-Hydroxyphenyl)butan-2-one] |
| 128.9 | – | 6.89 | – | Cc1cc(N)c2ccccc2n1 [4-Amino-2-methylquinoline] |
| 138.47 | 137.21 | 7.89 | 7.97 | CN(C)S(=O)(=O)c1ccc(N)cc1 [4-Amino-N,N-dimethylbenzenesulfonamide] |

| collision cross section [1, 3] [Å²] | collision cross section [1, 4] [Å²] | reversed-phase LC retention time [2, 3] [min] | reversed-phase LC retention time [2, 4] [min] | Structure (SMILES) |
| --- | --- | --- | --- | --- |
| 142.4 | – | 7.19 | – | Cc1c(N)c(=O)n(-c2ccccc2)n1C [4-Aminoantipyrine] |
| 143.89 | – | 10.3 | – | COc1cc(Cl)c(OC)cc1N [4-Chloro-2,5-dimethoxyaniline] |
| 144.44 | – | 7.67 | – | Cc1c(C=O)c(=O)n(-c2ccccc2)n1C [4-Formyl-antipyrine] |
| 143.1 | – | 2.23 | – | CC1(C)CC(O)CC(C)(C)N1CCO [4-Hydroxy-1-(2-hydroxyethyl)-2,2,6,6-tetramethylpiperidine] |
| – | 144.47 | – | 12 | O=C(c1ccccc1)c1ccc(O)cc1 [4-Hydroxybenzophenone] |
| 123.13 | – | 5.99 | – | Oc1cccc2[nH]nnc12 [4-Hydroxybenzotriazole] |
| 124.53 | 122.52 | 6.72 | 6.7 | Oc1ccnc2ccccc12 [4-Hydroxyquinoline] |
| – | 147.46 | – | 4.88 | Nc1cccc2cc(S(=O)(=O)O)ccc12 [5-Aminonaphthalene-2-sulfonic acid] |
| 132.8 | 129.23 | 7.64 | 11.6 | c1ccc2c(c1)[nH]c1ccncc12 [5-Carboline] |
| – | 120.9 | – | 9.28 | Clc1ccc2n[nH]nc2c1 [5-Chlorobenzotriazole] |
| – | 143.15 | – | 2.41 | O=S(=O)(O)c1cccc2c(O)cccc12 [5-Hydroxy-1-naphthalenesulfonic acid] |
| 123.85 | – | 9.87 | – | Cc1ccc2[nH]nnc2c1 [5-Methyl-1H-benzotriazole] |
| – | 137.91 | – | 0.96 | O=C(O)c1cc(C(=O)O)cc([N+](=O)[O-])c1 [5-Nitroisophthalic acid] |
| 172.06 | – | 6.11 | – | COc1cc2nc(N3CCNCC3)nc(N)c2cc1OC [6,7-Dimethoxy-2-(piperazin-1-yl)quinazolin-4-amine] |
| – | 149.95 | – | 5.24 | CC(C)N1C(=O)c2cc(O)ccc2NS1(=O)=O [6-Hydroxybentazone] |
